# Test results published in ChEMBL document CHEMBL5230122, “Natural products and other inhibitors of F1FO ATP synthase” (Eur J Med Chem, 2020).
# Numbered stars: 1 amine (or outer) side, 2 acyl side, 3 side chain; on linkers, the order of the positions; unused ones are H or OH. Square brackets hold non-standard residues; d marks the D form. Peptide text beside a SMILES is read from it. * marks the point of attachment. X2 = CCC(=O)C[C@H](O)C[C@@H](C)C[C@H](N[*:1])C(=O)[*:2]; Leu(3R-OH) = CC(C)[C@@H](O)[C@H](N)C(=O)O; NH((S)CH(Me)CH2NMe2) = C[C@@H](CN(C)C)N*; Pro(4S-Me) = C[C@@H]1CN[C@H](C(=O)O)C1; X1 = CC[C@@H](C)/C=C/C(=O)*; Aib = CC(C)(N)C(=O)O; βAla = NCCC(=O)O
# How the values were obtained:
# [1] = test system: HL-60; assay: Anticancer activity against human HL-60 cells assessed as reduction in cell viability incubated for 72 hrs by CCK-8 assay; format: functional, cell-based; conditions: HL-60, 72 h
# [2] = test system: MCF7; assay: Anticancer activity against human MCF7 cells assessed as reduction in cell viability incubated for 72 hrs by CCK-8 assay; format: functional, cell-based; conditions: MCF7, 72 h
# [3] = test system: NCI-H1299; assay: Anticancer activity against human NCI-H1299 cells assessed as reduction in cell viability incubated for 72 hrs by CCK-8 assay; format: functional, cell-based; conditions: NCI-H1299, 72 h
# [4] = test system: LoVo; assay: Anticancer activity against human LoVo cells assessed as reduction in cell viability incubated for 72 hrs by CCK-8 assay; format: functional, cell-based
# [5] = Inhibition of bovine heart mitochondrial F0F1-ATPase assessed as reduction in ATP synthesis by fluorescence assay; format: mitochondria, Bos taurus, Mitochondria
# [6] = Inhibition of bovine heart mitochondrial F0F1-ATPase assessed as decrease in rate of ATP hydrolysis by fluorescence assay; format: mitochondria, Bos taurus, Mitochondria
# [7] = test system: T47D; assay: Antiproliferative activity against human T47D cells assessed as reduction in cell viability incubated for 48 hrs by MTT assay; format: functional, cell-based
# [8] = test system: MDA-MB-231; assay: Antiproliferative activity against human MDA-MB-231 cells assessed as reduction in cell viability incubated for 48 hrs by MTT assay; format: functional, cell-based; conditions: MDA-MB-231, 48 h
# [9] = test system: MCF7; assay: Antiproliferative activity against human MCF7 cells assessed as reduction in cell viability incubated for 48 hrs by MTT assay; format: functional, cell-based; conditions: MCF7, 48 h
# [10] = test system: HL-60; assay: Antiproliferative activity against human HL-60 cells assessed as reduction in cell viability incubated for 48 hrs by MTT assay; format: functional, cell-based; conditions: HL-60, 48 h
# [11] = test system: SMMC-7721; assay: Antiproliferative activity against human SMMC-7721 cells assessed as reduction in cell viability incubated for 48 hrs by MTT assay; format: functional, cell-based; conditions: SMMC-7721, 48 h
# [12] = test system: A549; assay: Antiproliferative activity against human A549 cells assessed as reduction in cell viability incubated for 48 hrs by MTT assay; format: functional, cell-based; conditions: A549, 48 h
# [13] = test system: SW480; assay: Antiproliferative activity against human SW480 cells assessed as reduction in cell viability incubated for 48 hrs by MTT assay; format: functional, cell-based; conditions: SW480, 48 h
# [14] = test system: NCI-H292; assay: Antiproliferative activity against human NCI-H292 cells assessed as reduction in cell viability by MTT assay; format: functional, cell-based
# [15] = test system: HeLa; assay: Antiproliferative activity against human HeLa cells assessed as reduction in cell viability by MTT assay; format: functional, cell-based
# [16] = test system: HL-60; assay: Anticancer activity against human HL-60 cells assessed inhibition of cell proliferation incubated for 48 hrs by MTT assay; format: functional, cell-based; conditions: HL-60, 48 h
# [17] = Inhibition of mouse liver mitochondrial ATP synthase by microplate immuno-capture ELISA assay; format: mitochondria, Mitochondria
# [18] = Inhibition of bovine heart mitochondrial F0F1-ATP synthase F0 domain assessed as reduction in rate of NADH oxidation for 30 mins by colorimetric assay; format: mitochondria, Bos taurus, Mitochondria
# [19] = test system: DU-145; assay: Antiproliferative activity against human DU-145 cells assessed as reduction in cell viability incubated for 3 days by rhodanile-blue dye based microplate reader analysis; format: functional; conditions: DU-145, 72 h
# [20] = test system: DU-145; assay: Antiproliferative activity against human DU-145 cells assessed as reduction in cell viability preincubated with PrSCs cells for 2 days followed by co-culture with DU-145 for 3 days by rhodanile-blue dye based microplate reader analysis; format: functional
# [21] = Acute toxicity in mouse assessed as maximum tolerated dose; conditions: in vivo
# [22] = test system: K562; assay: Antiproliferative activity against human K562 cells assessed as reduction in cell viability incubated for 72 hrs by MTT assay; format: functional, cell-based; conditions: K562, 72 h
# [23] = test system: HCT-116; assay: Antiproliferative activity against human HCT-116 cells assessed as reduction in cell viability incubated for 72 hrs by MTT assay; format: functional, cell-based; conditions: HCT-116, 72 h
# [24] = test system: K562; assay: Antitumor activity against human K562 cells assessed as reduction in cell viability incubated for 72 hrs by MTT assay; format: functional, cell-based; conditions: K562, 72 h
# [25] = test system: HCT-116; assay: Antitumor activity against human HCT-116 cells assessed as reduction in cell viability incubated for 72 hrs by MTT assay; format: functional, cell-based; conditions: HCT-116, 72 h
# [26] = Inhibition of bovine heart mitochondrial F0F1-ATP synthase assessed as rate of NADH oxidation in presence of NADH for 30 mins by colorimetric assay; format: mitochondria, Bos taurus, Mitochondria
# [27] = test system: HeLa; assay: Cytotoxicity against human HeLa cells assessed as reduction in cell viability; format: functional, cell-based
# [28] = test system: HL-60; assay: Cytotoxicity against human HL-60 cells assessed as reduction in cell viability; format: functional, cell-based
# [29] = test system: NCI-H292; assay: Anticancer activity against human NCI-H292 cells assessed as reduction in cell proliferation incubated for 48 hrs by Calcein AM and Pluronic F-127 staining based fluorescence plate reader analysis; format: functional; conditions: NCI-H292, 48 h
# [30] = Inhibition of mitochondrial F0F1-ATPase (unknown origin); parameters: species or system Homo sapiens
compound,measurement,setting,value
CC[C@H](C)[C@H](NC(=S)[C@H](C)NC(=O)[C@H](C)NC(=S)[C@H](CCSC)NC(=S)[C@@H](NC(=O)C(C)=O)C(C)C)C(=S)N[C@@H](C)C(=O)N[C@H]1C(=O)N[C@@H](C(C)C)C(=O)N[C@@H](C)C(=O)N[C@@H](Cc2ccc(OC)cc2)C(=O)N[C@@H](C(O)c2cn(C)c[n+]2C)C(=O)N/C=C\SC1C (stereo partly specified),IC50,[1],610 nM
same,IC50,[2],4980 nM
same,IC50,[3],5080 nM
same,IC50,[4],1830 nM
CC[C@H]1O[C@@]2(C)[C@H](OC(C)=O)[C@@]1(C)O[C@@H](/C=C/C=C/C=C/c1oc(=O)cc(OC)c1C)[C@@H]2O,Ki,[5],25 nM
same,Ki,[6],120 nM
same,IC50,[7],890 nM
same,IC50,[8],5520 nM
same,IC50,[9],90 nM
same,IC50,[10],14700 nM
same,IC50,[11],10800 nM
same,IC50,[12],14700 nM
same,IC50,[13],22400 nM
COC[C@@H](C[C@H]1O[C@@](O)([C@H](O)[C@@H]2C[C@H](OC)[C@@H](O)CC/C=C(C)/C=C/[C@@H](O[C@@H]3O[C@@H](C)[C@H](OC)[C@@H](OC(=O)CCC(=O)O)[C@@H]3O)[C@H](C)/C=C(C)/C=C(C)/C=C(\C)C(=O)O2)[C@H](C)[C@@H](O)[C@H]1C)O[C@H]1C[C@](C)(O)[C@@H](O[C@H]2C[C@@H](OC)[C@H](O)[C@@H](C)O2)[C@H](C)O1,IC50,[14],82 nM
same,IC50,[15],260 nM
c1csc(-c2c3ccc(=[N+]4CCCCC4)cc-3oc3cc(N4CCCCC4)ccc23)c1,IC50,[16],100 nM
same,IC50,[17],3000 nM
CCC(=O)C[C@H](O)C[C@@H](C)C[C@H](NC(=O)[C@@H]1C[C@H](C)CN1C(=O)/C=C/[C@H](C)CC)C(=O)N[C@H](C(=O)NC(C)(C)C(=O)N[C@@H](CC(C)C)C(=O)N[C@@H](CC(C)C)C(=O)NC(C)(C)C(=O)NC(C)(C)C(=O)NCCC(=O)N[C@@H](C)CN(C)C)[C@H](O)C(C)C (X1-[Pro(4S-Me)][X2][Leu(3R-OH)][Aib]LL[Aib][Aib][βAla]-{NH((S)CH(Me)CH2NMe2)}),IC50,[18],2.8 µg/mL
same,IC50,[19],> 1 µg/mL
same,IC50,[20],0.045 µg/mL
same,MTD,[21],2.5 mg/kg
CC[C@H]1/C=C/C=C/C[C@@H](C)[C@H](O)[C@@](C)(O)C(=O)[C@@H](C)[C@H](O)[C@@H](C)C(=O)[C@@H](C)[C@H](O)[C@@H](C)/C=C/C(=O)O[C@@H]2[C@H](C)[C@H](CC1)O[C@]1(CC[C@H](C)[C@H](C[C@@H](C)O)O1)[C@H]2C [OLIGOMYCIN],IC50,[22],200 nM
same,IC50,[23],900 nM
same,IC50,[24],200 nM
same,IC50,[25],1000 nM
CC[C@@H](O)C[C@@H]1O[C@@]2(CC[C@@H]1C)C[C@H]1C[C@H](CC[C@@H](CC)/C=C/C=C/CCC[C@@](C)(O)[C@H](O)C[C@H](O)C[C@@H](O)[C@@H](C)[C@H](O)[C@@H](CC)/C=C/C(=O)O1)O2,IC50,[26],1000 nM
same,IC50,[27],8200 nM
same,IC50,[28],5800 nM
COC[C@@H](C[C@H]1O[C@@](O)([C@H](O)[C@@H]2C[C@H](OC)[C@@H](O)CC/C=C(C)/C=C/[C@@H](O[C@@H]3O[C@@H](C)[C@H](OC)[C@@H](O)[C@@H]3OC(=O)CCC(=O)O)[C@H](C)/C=C(C)/C=C(C)/C=C(\C)C(=O)O2)[C@H](C)[C@@H](O)[C@H]1C)O[C@H]1C[C@](C)(O)[C@@H](O[C@H]2C[C@@H](OC)[C@H](O)[C@@H](C)O2)[C@H](C)O1,IC50,[14],91 nM
same,IC50,[15],240 nM
CC[C@@H](C)/C=C/C(=O)N1C[C@@H](C)C[C@H]1C(=O)N[C@@H](C)C(=O)N[C@H](C(=O)NC(C)(C)C(=O)N[C@@H](CC(C)C)C(=O)N[C@@H](CC(C)C)C(=O)NC(C)(C)C(=O)NC(C)(C)C(=O)NCCC(=O)N[C@@H](C)CN(C)C)[C@H](O)C(C)C (X1-[Pro(4S-Me)]A[Leu(3R-OH)][Aib]LL[Aib][Aib][βAla]-{NH((S)CH(Me)CH2NMe2)}),IC50,[18],2.8 µg/mL
same,IC50,[19],> 1 µg/mL
same,IC50,[20],0.21 µg/mL
same,MTD,[21],12.5 mg/kg
COC[C@@H](C[C@H]1O[C@@](O)([C@H](O)[C@@H]2C[C@H](OC)[C@@H](O)CC/C=C(C)/C=C/[C@@H](O[C@@H]3O[C@@H](C)[C@H](OC)[C@@H](O)[C@@H]3O)[C@H](C)/C=C(C)/C=C(C)/C=C(\C)C(=O)O2)[C@H](C)[C@@H](O)[C@H]1C)O[C@H]1C[C@](C)(O)[C@@H](O[C@H]2C[C@@H](OC)[C@H](O)[C@@H](C)O2)[C@H](C)O1,IC50,[29],32 nM
same,IC50,[30],700 nM
